We go through one molecule from patent US20240208901A1, “Deuterated 3,3'-Diselenodipropionic Acid (DSePA) and Its Use as an Anticancer or Radioprotective Agent” (Secretary, Department of Atomic Energy, priority 2022, published 2024).

One assay deals with A549 cells. As to the kind of experiment: Clonogenic assay in A549 cells. The assay is classed as cell-based, human. To be noted: Homo sapiens, 168 h, seven days treatment, read-out: IC50 to inhibit growth (survival fraction). The procedure:
Further, clonogenic assay is considered as the gold standard method for evaluating the anticancer activity of any compound and is also a good indicator of the in vivo efficacy of any anticancer compound. Therefore, the therapeutic index of DSePA and D-DSePA in A549/WI-38 cells was also validated by employing the clonogenic assay. For this, A549/WI-38 cells were treated with the varying concentrations (0.1-2 μM)/(1-500 μM) of DSePA/D-DSePA for seven days and the survival fraction was calculated by counting the number of surviving clones (FIG. 11A). The plot of survival fraction verses the concentration of DScPA/D-DSCPA was used to estimate the IC50 of above compounds to inhibit the growth of A549/WI-38 cells. […] This clearly confirmed that deuteration of DScPA reduced its toxicity in normal cells without compromising its efficacy in cancer cells. […]
(§1) Clonogenic assay—Clonogenic assay was performed according to the method reported previously. […] After 7 days, colonies were fixed with absolute methanol for 5 min, stained with 0.5% crystal violet for 5 min, washed with distilled water to remove excess stain and counted manually under a stereo microscope. […] The plating efficiency and the survival fraction under irradiated and drug treated conditions were calculated using following formulae: […]
(§2) The plating efficiency of A549 and WI38 cells was calculated by seeding ˜300 and ˜500 cells respectively. […]

Assay [1] relates to human NSCLC cells such as A549, H1975 and H3122. Kind of assay: MTT assay, human NSCLC cells (summary statement). The assay is classed as cell-based. The settings on record: read-out: half maximum concentration (IC50) for growth inhibition. An excerpt: 3,3′-Disclenodipropionic acid-D8 (D-DSePA, chemical structure shown in FIG. 1) was synthesized by reacting freshly prepared sodium selenide (Na2Se2) and 3-bromopropionic acid-D4 in D2O solvent with 42% yield. The synthesized D-DSePA was purified and characterized by NMR spectroscopy and mass spectrometry. The molecular structure of D-DSePA has been established by single-crystal X-ray diffraction analysis. The treatment of D-DSePA and un-deuterated DSePA inhibited the growth of human NSCLC cells such as A549, H1975 and H3122 with half maximum concentration (IC50) in the range of 5-50 μM by MTT assay. […] Finally, at identical treatment concentration, D-DSePA offered better radioprotection to non-cancerous WI38 cells with a dose modification factor (DMF) of 1.16±0.05 as compared to un-deuterated DScPA with DMF of 1.12±0.03.
MTT Assay—To evaluate the anti-proliferative effect of D-DScPA and DScPA, Cells (˜5×10^3) suspended in 100 μl of complete culture medium were seeded in each well of 96 well plates. […] The percentage (%) cytotoxicity was calculated from the decrease in absorbance at 570 nm of treated groups as compared to that of control group. […] The therapeutic index was calculated by normalizing the IC50 concentration of D-DSePA/DSePA in non-cancerous cells to that in cancerous cells.
On the technique in general: Tetrazolium dyes change colour on reduction, which living cells bring about.

The test system of a further assay is WI-38 cells. Kind of assay: Clonogenic assay, radioprotection of WI-38 cells against γ-irradiation. The assay is classed as cell-based, human. The settings on record: WI-38 cells pretreated 24 h with 0.5 μM drug, γ-irradiation 2-12 Gy, clonogenic assay. On the procedure: Further, clonogenic assay is considered as the gold standard method for evaluating the anticancer activity of any compound and is also a good indicator of the in vivo efficacy of any anticancer compound. Therefore, the therapeutic index of DSePA and D-DSePA in A549/WI-38 cells was also validated by employing the clonogenic assay. For this, A549/WI-38 cells were treated with the varying concentrations (0.1-2 μM)/(1-500 μM) of DSePA/D-DSePA for seven days and the survival fraction was calculated by counting the number of surviving clones (FIG. 11A). The plot of survival fraction verses the concentration of DScPA/D-DSCPA was used to estimate the IC50 of above compounds to inhibit the growth of A549/WI-38 cells. […] This clearly confirmed that deuteration of DScPA reduced its toxicity in normal cells without compromising its efficacy in cancer cells. Since anticancer agents are intended to be used in combination with radiation, DSePA/D-DSePA at a treatment concentration of 0.5 μM (dose close to IC50 as determined by clonogenic assay) was combined with varying absorbed doses (2-8 Gy) of γ-irradiation and the effect of combinatorial treatment on the viability of A549 cells was determined by clonogenic assay (FIG. 12A & 12B). For this, A549 cells exposed to the varying absorbed doses (2-8 Gy) of γ-radiation were immediately treated with DScPA/D-DScPA and cultured for seven days prior to clonogenic assay. […] The D10 value of the combinatorial treatment involving DScPA estimated was 4.5 Gy (FIG. 12B). […]
as §1, §2

Consider `O=C(O)CC[Se][Se]CCC(=O)O` [DSePA, 3,3′-diselenodipropionic acid], for which the values for the IC50 (in the assay with A549 cells; in assay [1]) were 1200 ± 10 nM and 5 to 50 µM, respectively. Also, the “dose modification factor (DMF, D10 of radiation plus drug / D10 of radiation alone)” value in the assay on WI-38 cells is listed as 1.12±0.03.
